Read-outs that look alike come from different tables or passages of the source.
How the values were obtained:
[1] = system: proliferative duodenum organoids; assay: Cell viability (Cell Titer Glo 3D, ATP) in proliferative organoid model; conditions: for IC50: Homo sapiens, 72 h, read-out: IC50 (μM) Prolif.
Experimental: (§1) Organoids were grown for 7–10 days then dissociated using TrypLE™ Express Enzyme, as described above. Single cells were resuspended in BME at a density of 5–6 × 10^5 cells/mL on ice and plated as 5 μL/well domes in clear-bottom 96-well plates (Corning). The domes were cured for 10–15 min at 37°C and overlaid with 100 μL of growth media replaced every 2–3 days.
(§2) Compounds were administered after 5–6 days in growth medium for proliferative organoids or after an additional 4 days in differentiation medium for differentiated organoids. Organoid media was replaced with 90 μL fresh media immediately prior to dosing. Compounds were diluted in growth or differentiation medium and administered as a 5-fold dilution series at 5-8 concentrations with corresponding 0.5% DMSO vehicle control (1% DMSO for aspirin), at 10 μL/well in triplicate. […] After 3 days of treatment, cultures were imaged by brightfield microscopy (THUNDER DMi8 inverted light microscope with a 2.5× objective and a DFC9000 GTC camera (Leica)). Wells were precluded from analysis on visual quality control (i.e., organoid loss due to BME degradation/dislodging or insufficient seeding density) congruent with cytotoxicity analysis. An equal volume of Cell Titer Glo 3D Reagent (Promega) was added to each well as described by the manufacturer’s instructions. Luminescence was measured on EnSight and EnVision (Perkin Elmer) plate readers and normalized to on-plate vehicle controls (0.5%–1% DMSO) in corresponding growth or differentiation medium. Experiments were conducted in technical triplicates and repeated in organoids from 3 different donors (donor demographics noted in Supplementary Table S1). Normalized viability was averaged at each concentration for each donor, and mean of donors was fit to a 4-Parameter Logistic (4PL) curve using Prism (GraphPad) to estimate the half-maximal inhibitory concentration (IC50) for each compound.
(§3) To compare toxicity responses of proliferative and differentiated organoids, proliferative organoids were grown 5–6 days in OGM prior to dosing, while differentiated organoids were transitioned to ODM for an additional 4 days prior to dosing (Figure 2A). Both proliferative and differentiated organoids were incubated with compounds or a 0.5%–1% DMSO vehicle control (as indicated) for 3 days prior to measuring ATP levels as a readout for cell viability. […] Compound-treated organoid ATP readouts were normalized to vehicle controls and a half-maximal inhibitory concentration (IC50) was calculated from dose-response curves of organoid viability for five compounds across 3 donor organoid lines.

[2] = system: differentiated duodenum organoids; assay: Cell viability (Cell Titer Glo 3D, ATP) in differentiated organoid model; conditions: for IC50: Homo sapiens, read-out: IC50 (μM) Diff.
Experimental: as §1, §2, §3

[3] = clinical, cited from earlier work
[4] = clinical plasma, cited from earlier work
[5] = Cell viability (Cell Titer Glo 3D, ATP) in differentiated organoid model; conditions: human, differentiated duodenum organoids
Experimental: as §1, §2, §3

[6] = patients, ref Peters et al., 2019
[7] = ref Peters et al., 2019, 2020, Belair et al.

| SMILES | IC50 [1] | IC50 [2] | fold increase in IC50, differentiated vs proliferative organoids ([2]; IC50 differentiated / IC50 proliferative) | Incidence of Diarrhea (%) [3, 6] | Cmax [4, 7] | decline in viability ([1]; 200 µM, proliferative organoids, 3 days) | decreases in viability ([1]; below 100 µM, proliferative organoids, 3 days) | IC50/Cmax Prolif. ([1]; human, 3 days) | cytotoxicity at 3 days, 200 µM [5] | decreases in viability ([2]; below 100 µM, differentiated organoids, 3 days) | IC50/Cmax Diff. ([2]; human, 3 days) | Incidence of Diarrhea (%) ([3]; oral dosing, ref Rampal et al., 2001) | Incidence of Diarrhea (%) ([3]; oral dosing, ref Rampal et al., 2001, listed as Aspirin) | Cmax ([4]; high-dose oral administration, ref Nagelschmitz et al. (2014)) |
| --- | --- | --- | --- | --- | --- | --- | --- | --- | --- | --- | --- | --- | --- | --- |
| CN(C)C/C=C/C(=O)Nc1cc2c(Nc3ccc(F)c(Cl)c3)ncnc2cc1O[C@H]1CCOC1 [afatinib] | 0.036 µM | 4.16 µM | over 100 fold | 96% | 0.078 µM |  |  |  |  |  |  |  |  |  |
| CC(=O)Oc1ccccc1C(=O)O [aspirin, Acetylsalicylic acid] | 1770 µM | 626 µM |  |  |  | no decline | minimal | 65.9 | ~25% | minimal | 23.3 | less than 2% | 1.8% | 26.9 µM |
| COc1cc2c(c(OC)c1OC)-c1ccc(OC)c(=O)cc1[C@@H](NC(C)=O)CC2 [colchicine] |  |  |  |  | 0.017 µM |  |  |  |  |  |  |  |  |  |
| CNC(=O)c1cc(Oc2ccc(NC(=O)Nc3ccc(Cl)c(C(F)(F)F)c3)cc2)ccn1 [sorafenib] | 10 µM | 8.42 µM |  | 43% | 6.2 µM |  |  |  |  |  |  |  |  |  |
